{
  "source": "the METLIN SMRT retention time set (Domingo-Almenara et al. 2019)",
  "data": [
    {"test": "gradient 5% acetonitrile 3 min, to 50% in 2 min, to 85% in 15 min, held 3 min, 100 µL/min", "conditions": "column: Zorbax Extend-C18 2.1 x 50 mm; eluents: water / acetonitrile, 0.1% formic acid", "how_it_was_run": "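The mobile phases were water and acetonitrile, each with 0.1% formic acid, pumped at 100 μL/min through a Zorbax Extend-C18 column (2.1 × 50 mm, 1.8 μm). Pure standards were injected as mixtures of ~100 molecules and detected by a quadrupole time-of-flight mass spectrometer in positive and negative ionization mode. Retention time came from computationally picked adduct peaks, each inspected by hand.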", "units": {"RP-LC retention time": "s"}, "values": [
      {"smiles": "COc1ccc(-c2nc(-c3ccc4c(c3)oc(=O)n4C(C)C)no2)c(C)c1", "RP-LC retention time": 1270},
      {"smiles": "Cc1ccccc1CNC(=O)CS(=O)Cc1cnn(-c2ccccc2)c1-n1cccc1", "note": "(configuration not stated)", "RP-LC retention time": 875},
      {"smiles": "Cc1ccc(CNC(=O)c2nc3cccnc3n(CC(C)C)c2=O)cc1C", "RP-LC retention time": 1010},
      {"smiles": "O=S(=O)(c1cc(-c2nnc(C3CCC3)o2)co1)N1CCN(c2ccc(F)cc2)CC1", "RP-LC retention time": 1250},
      {"smiles": "Cc1ccc2oc(-c3nnc(C(=O)NCCN4CCOCC4)o3)c(C)c2c1", "RP-LC retention time": 667},
      {"smiles": "Cc1nc(-c2ccc(C(=O)N3CCOCC3)cc2)no1", "RP-LC retention time": 635},
      {"smiles": "CCc1cc(=O)n(Cc2ncc(C)c(OC)c2C)c(N2CCCC2)n1", "RP-LC retention time": 554},
      {"smiles": "O=C(NCC1CCOCC1)c1ccccc1Br", "RP-LC retention time": 671},
      {"smiles": "CCCc1nc(-c2c(C)cc(C)nc2NC(=O)c2cc(F)cc(F)c2)no1", "RP-LC retention time": 938},
      {"smiles": "CCC1CN2C=NC(N3CCN(C(=O)Nc4ccccc4Cl)CC3)=CC2=N1", "note": "(configuration not stated)", "RP-LC retention time": 814},
      {"smiles": "CCOC(=O)Nc1ccc2nc(-c3cscn3)[nH]c2c1", "RP-LC retention time": 651},
      {"smiles": "COC(=O)c1nnn(-c2cc(Cl)ccc2C)c1C(=O)OC", "RP-LC retention time": 933},
      {"smiles": "O=C(Cn1c(=O)c2nncn2c2ncccc21)N1CCN(c2ccccc2)CC1", "RP-LC retention time": 674},
      {"smiles": "CO[C@H]1C(=O)N(C(C)C)[C@H]1C1CCN(C(=O)c2sc(C)nc2C)CC1", "RP-LC retention time": 650},
      {"smiles": "COc1cc(NC(=O)c2cnc3c(c2)c(=O)n(C)c(=O)n3-c2ccc(C)cc2)cc(OC)c1", "RP-LC retention time": 952},
      {"smiles": "Cc1cccc(NC(=O)CSc2nc(N3CCCCC3)nc3ccccc23)c1", "RP-LC retention time": 758},
      {"smiles": "O=C(N[C@@H]1CN(Cc2ccsc2)CC[C@@H]1CO)c1ccccc1", "RP-LC retention time": 591},
      {"smiles": "O=C(CN1CCC2(CC1)N=C(c1ccc(Cl)cc1)C(=O)N2)Nc1cc(F)ccc1F", "RP-LC retention time": 696},
      {"smiles": "COc1ccc(-n2c(=O)c(C(=O)Nc3ccccc3Cl)c(O)c3cccnc32)cc1", "RP-LC retention time": 1270},
      {"smiles": "CC(C)c1ccc(NC(=O)Cn2ccc3c(=O)n(C)c(=O)n(C)c32)cc1", "RP-LC retention time": 772},
      {"smiles": "CCc1cc(C(=O)Nc2ccc(Cl)cc2)nc2ccnn12", "RP-LC retention time": 1080},
      {"smiles": "FC1(F)C[C@@H](CN2CCOCC2)N(Cc2cn[nH]c2-c2ccccc2)C1", "RP-LC retention time": 765},
      {"smiles": "COc1ccc(Cl)cc1NC(=O)N(C)CCc1noc(COc2ccccc2)n1", "RP-LC retention time": 1010},
      {"smiles": "O=C1CCCc2cc(S(=O)(=O)N3CCN(c4cccc(Cl)c4)CC3)ccc2N1", "RP-LC retention time": 928},
      {"smiles": "COc1ccc(C(=O)NC2CCN(c3cc(-c4cccs4)[nH]n3)C2)c(C)c1", "note": "(configuration not stated)", "RP-LC retention time": 712},
      {"smiles": "CCOC(=O)Cc1csc(NC(=O)C2CCCN(c3ncnc4c3nc3n4CCCCC3)C2)n1", "note": "(configuration not stated)", "RP-LC retention time": 810},
      {"smiles": "Clc1cc(-c2nc(-c3cccc(-c4ccn[nH]4)c3)no2)ccn1", "RP-LC retention time": 949},
      {"smiles": "Cc1cccc(S(=O)(=O)N2C[C@H]3CN(S(=O)(=O)c4ccc(C#N)cc4)C[C@@H](C2)O3)c1", "RP-LC retention time": 945},
      {"smiles": "O=C(NCC1CCN(Cc2ccccc2F)CC1)C1CCN(c2ccc3nncn3n2)CC1", "RP-LC retention time": 584},
      {"smiles": "O=S(=O)(c1ccc(-c2nnc(C3CCC3)o2)o1)N1CCN(C2CCCCC2)CC1", "RP-LC retention time": 690},
      {"smiles": "Cc1ccc(C(=O)Nc2cnc(N3CCCCCC3)nc2)s1", "RP-LC retention time": 910},
      {"smiles": "CCC(=O)Nc1ccc(CCc2nc3ccc(C(=O)NC4CCCCC4)cc3[nH]2)cc1", "RP-LC retention time": 647},
      {"smiles": "O=C(Nc1ccc2c(c1)OCCO2)N1CCC(OCCOc2ccccc2)CC1", "RP-LC retention time": 891},
      {"smiles": "CCOC(=O)N1CCN(C(=O)Cn2ccc3ccccc32)CC1", "RP-LC retention time": 731},
      {"smiles": "COC(=O)C(NC(=O)N1CC(Cn2c(C)cnc2C2CCOCC2)C1)C(C)C", "note": "(configuration not stated)", "RP-LC retention time": 600},
      {"smiles": "COc1ccc(-c2csc(NC(=O)CCn3c(=O)oc4ccccc43)n2)cc1", "RP-LC retention time": 940},
      {"smiles": "CC(=O)N1C[C@@H]2CCCN3CCC[C@@H]([C@H]23)[C@H]1CCCC(=O)NCCC(C)C", "RP-LC retention time": 583},
      {"smiles": "Cc1cc(/C=C2\\SC(=S)NC2=O)cc(C)c1O", "RP-LC retention time": 906},
      {"smiles": "CCN1CCCn2cc(S(=O)(=O)NCc3ccc(OC)cc3)cc2C1=O", "RP-LC retention time": 698},
      {"smiles": "CC(C)CCNC(=O)C1(C)CN(S(=O)(=O)c2ccccc2)CC(=O)N1c1ccc(F)cc1", "note": "(configuration not stated)", "RP-LC retention time": 959},
      {"smiles": "CCCNc1nc(-c2ccccc2Cl)nc2ccccc12", "RP-LC retention time": 702},
      {"smiles": "Cc1nc2cc(N3CC(C(=O)N4CCN(c5ccccc5C)CC4)CC3=O)ccc2o1", "note": "(configuration not stated)", "RP-LC retention time": 848},
      {"smiles": "COc1cccc(C(=O)NCCCc2ccc(N(C)C)cc2)c1OC", "RP-LC retention time": 574},
      {"smiles": "COc1ccc(OC)c(CNC(=O)C2CCN(C(=O)C3Sc4ccccc4NC3=O)CC2)c1", "note": "(configuration not stated)", "RP-LC retention time": 743},
      {"smiles": "COc1ccc(-c2cc3c(=O)n(Cc4ccccc4)ccn3n2)cc1OC", "RP-LC retention time": 906},
      {"smiles": "CCn1nnc2ccc(-c3noc(-c4ccc(NC(C)=O)cc4)n3)cc21", "RP-LC retention time": 807},
      {"smiles": "O=C(NCc1csc(C2CCCN(C(=O)c3ccccc3F)C2)n1)C1CCC1", "note": "(configuration not stated)", "RP-LC retention time": 727},
      {"smiles": "Cc1ccc2c(c1)c1c3n2CCN(c2nc(-c4ccccc4)cs2)C3CCC1", "note": "(configuration not stated)", "RP-LC retention time": 901},
      {"smiles": "Brc1cccc(-c2nnc(Cc3nc(-c4ccc5c(c4)OCO5)no3)o2)c1", "RP-LC retention time": 1060},
      {"smiles": "O=c1c(=O)n(-c2ccccc2)ccn1Cc1nc(-c2ccc3c(c2)OCO3)no1", "RP-LC retention time": 773},
      {"smiles": "COc1ccc(-c2nnc(N3CCC(C(=O)N4CCC5(CC4)OCCO5)CC3)o2)cc1", "RP-LC retention time": 704},
      {"smiles": "CCCN1CCN(C(=O)C(CC)n2c3ccccc3c3cnn(C)c(=O)c32)CC1", "note": "(configuration not stated)", "RP-LC retention time": 618},
      {"smiles": "CCOc1nn(CC)cc1-c1nnc(SCC(=O)N2CCCc3ccccc32)n1CC", "RP-LC retention time": 734},
      {"smiles": "Cc1ccc(NC(=O)Cc2nnc3ccc(-c4nc(C)no4)cn23)c(C)c1", "RP-LC retention time": 781},
      {"smiles": "Cc1nc2c(sc3nc(-c4ccccc4)ccc32)c(=O)n1CC(=O)NCc1ccccc1", "RP-LC retention time": 972},
      {"smiles": "CCOC(=O)c1noc2nc(C)nc(NCc3ccccc3)c12", "RP-LC retention time": 1060},
      {"smiles": "CCn1c(=O)c2c(C(=O)N3CCN(c4ccccn4)CC3)cc(=O)n(CC)c2n(C)c1=O", "RP-LC retention time": 617},
      {"smiles": "O=C(Nc1ccc2c(c1)OCO2)N1CCN(c2ccc3nnc(C4CC4)n3n2)CC1", "RP-LC retention time": 613},
      {"smiles": "O=C(C1CCN(c2cncnc2N2CCCCC2)CC1)N1CCOCC1", "RP-LC retention time": 593},
      {"smiles": "CC1=C(c2ccccc2)S(=O)(=O)N=C1N1CCCN(C(=O)C2CC2)CC1", "RP-LC retention time": 991},
      {"smiles": "O=C(NCCN1CCc2ccccc2C1)c1cn2nc(Cl)ccc2n1", "RP-LC retention time": 618},
      {"smiles": "CC(=O)Nc1ccc(NC(=O)Cn2nc(C(=O)N3CCCCC3)c3ccccc32)cc1", "RP-LC retention time": 678},
      {"smiles": "O=C(C1=CCN(Cc2ccccc2)CC1)N1CCN(c2ccc(F)cc2)CC1", "RP-LC retention time": 655},
      {"smiles": "Cn1c(=O)c(N2CCN(C(=O)Cc3ccc(Br)cc3)CC2)nc2cccnc21", "RP-LC retention time": 938},
      {"smiles": "COC(=O)C1=C(C)NC(=O)NC1c1ccc(Cl)c(Cl)c1", "note": "(configuration not stated)", "RP-LC retention time": 726},
      {"smiles": "Cc1c(C(=O)N2CCCC2)cc(-c2ccc(F)cc2)n1C", "RP-LC retention time": 889},
      {"smiles": "COc1cccc(N2CCN(S(=O)(=O)c3cc(-c4nc(C(C)C)cs4)cs3)CC2)c1", "RP-LC retention time": 1310}
    ]}
  ]
}
